{
  "source": "patent US5563134A",
  "about": "(Sandoz Ltd., priority 1993, dated 1996)",
  "key": {"horseradish peroxidase [1]": {"target": "T1, horseradish peroxidase (Armoracia rusticana, UniProt P00433)", "T1 sequence (P00433 31-338 limits assumed)": "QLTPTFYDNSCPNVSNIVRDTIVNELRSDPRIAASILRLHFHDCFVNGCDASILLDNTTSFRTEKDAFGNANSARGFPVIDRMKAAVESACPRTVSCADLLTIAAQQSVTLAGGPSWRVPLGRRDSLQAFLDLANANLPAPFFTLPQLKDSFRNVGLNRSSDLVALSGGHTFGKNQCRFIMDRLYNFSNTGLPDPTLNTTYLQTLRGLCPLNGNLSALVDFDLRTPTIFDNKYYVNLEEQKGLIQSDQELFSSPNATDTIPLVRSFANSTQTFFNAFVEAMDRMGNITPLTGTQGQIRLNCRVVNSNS", "assay": "Electron spin resonance spectroscopy of radicals in a peroxidase system", "conditions": "for Effect on ascorbyl radical concentration (ESR): 1 mM added to ascorbate/clozapine/horseradish peroxidase/hydrogen peroxide system"}, "[2]": {"system": "patients refractory and/or intolerant to classical antipsychotic drug treatment", "conditions": "cited from earlier work"}, "horseradish peroxidase [3]": {"target": "T1, horseradish peroxidase", "assay": "Clozapine metabolism by peroxidase, disappearance of UV absorption at 290 nm", "format": "biochemical"}, "[4]": {"system": "horseradish peroxidase (or human myeloperoxidase)", "format": "biochemical", "experimental": "(§1) Oxygen consumption has also been observed when horseradish peroxidase was replaced with human myeloperoxidase (10 units) and GSH with NADPH (10 mM)."}, "[5]": {"target": "horseradish peroxidase (or human myeloperoxidase) (Homo sapiens, UniProt P05164)", "sequence (P05164 165-278 limits assumed)": "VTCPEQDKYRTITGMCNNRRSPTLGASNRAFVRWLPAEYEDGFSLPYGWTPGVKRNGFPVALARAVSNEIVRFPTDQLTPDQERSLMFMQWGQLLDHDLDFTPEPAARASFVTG", "sequence (P05164 279-745 limits assumed)": "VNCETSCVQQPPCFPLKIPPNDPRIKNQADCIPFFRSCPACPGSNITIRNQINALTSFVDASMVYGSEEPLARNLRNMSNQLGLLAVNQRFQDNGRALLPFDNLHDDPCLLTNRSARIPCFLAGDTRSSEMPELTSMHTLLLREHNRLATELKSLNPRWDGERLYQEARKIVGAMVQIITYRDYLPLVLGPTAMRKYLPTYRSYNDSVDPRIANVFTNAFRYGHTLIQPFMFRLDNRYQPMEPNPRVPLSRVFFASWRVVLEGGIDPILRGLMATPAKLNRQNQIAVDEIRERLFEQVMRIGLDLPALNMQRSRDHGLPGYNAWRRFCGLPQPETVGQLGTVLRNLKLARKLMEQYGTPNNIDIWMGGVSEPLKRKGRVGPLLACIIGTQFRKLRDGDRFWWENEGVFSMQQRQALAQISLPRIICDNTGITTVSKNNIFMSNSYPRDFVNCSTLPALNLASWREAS", "format": "biochemical", "conditions": "clozapine 100 μM, human myeloperoxidase 10 units, NADPH 10 mM, in place of horseradish peroxidase and GSH", "experimental": "as §1"}, "[6]": {"system": "human myeloperoxidase or horseradish peroxidase", "assay": "HPLC with on-line radioactivity detection of tritium-labeled clozapine incubated with peroxidase and hydrogen peroxide", "format": "biochemical", "experimental": "For HPLC a reversed phase column (Supelco Inc., Bellefonte Pa. USA LC-18-DB, 5 μm, 250×4.6 mm) was used. The mobile phase consisted of (NH4)2 CO3 buffer pH 8.5 (solvent A) and acetonitrile (solvent B). The proportion of solvent B was 0% for 5 minutes and was increased to reach 20% at 10 minutes, 24% at 60 minutes and 80% at 100 minutes. […] Instead two radioactive peaks eluting at 28 and 53 minutes from the HPLC appeared."}, "[7]": {"system": "glutathione and protein from human myeloperoxidase and human leucocytes"}, "[8]": {"system": "glutathione and protein from human myeloperoxidase and human leucocytes", "assay": "Reactive species formation and covalent binding of clozapine metabolites, tests as for clozapine"}, "[9]": {"system": "granulocytes/polymorphonuclear leucocytes (PMN's)", "assay": "Covalent binding of radiolabeled clozapine to isolated PMN's", "format": "cell-based, human", "experimental": "4) In another test heparinized peripheral blood was obtained from normal, healthy male volunteers, and granulocytes/polymorphonuclear leucocytes (PMN's) were isolated within 1-2 hours using an isolation kit (United Technologies Packard, Los Alamos, USA). PMN's were suspended in RPMI 1640 (Gibco, Basel, Switzerland) medium and adjusted to about 4×10^6 cells/ml before fetal calf serum was added (10% v/v)."}},
  "note": "Read-outs that look alike come from different tables or passages of the source.",
  "data": [
    {"smiles": "NC(=O)C1=CN([C@@H]2O[C@H](COP(=O)(O)OP(=O)(O)OC[C@H]3O[C@@H](n4cnc5c(N)ncnc54)[C@H](OP(=O)(O)O)[C@@H]3O)[C@@H](O)[C@H]2O)C=CC1", "note": "[NADPH]", "values": [
      {"measurement": "Effect on ascorbyl radical concentration (ESR)", "setting": "horseradish peroxidase [1]", "value": "almost absent"}
    ]},
    {"smiles": "CN1CCN(C2=Nc3cc(Cl)ccc3Nc3ccccc32)CC1", "note": "[clozapine, 8-chloro-11-(4-methyl-1-piperazinyl)-5H-dibenzo[b,e][1,4]diazepine]", "values": [
      {"measurement": "Antipsychotic efficacy compared with standard neuroleptics", "setting": "[2]; clinical studies", "value": "superior"},
      {"measurement": "Patients refractory to standard neuroleptics who significantly improved", "setting": "[2]; clozapine treatment", "value": "approximately 30%"},
      {"measurement": "Risk of granulocytopenia and agranulocytosis", "setting": "[2]; clozapine treatment", "value": "apparent increased risk"},
      {"measurement": "Increase in steady-state concentration of the ascorbyl radical when clozapine is present", "setting": "horseradish peroxidase [1]; 100 μM sodium ascorbate, 100 μM clozapine, horseradish peroxidase 8.3 μg/ml, hydrogen peroxide 50 μM, pH 7.4", "value": "over two fold"},
      {"measurement": "Glutathionyl thiyl radicals by ESR (DMPO trapping)", "setting": "horseradish peroxidase [1]; absence of sodium ascorbate, DMPO 100 mM", "value": "detected"},
      {"measurement": "Clozapine metabolism by peroxidases (disappearance of UV absorption at 290 nm)", "setting": "horseradish peroxidase [3]; clozapine 100 μM, 1-5 μg/ml horseradish peroxidase, 50 μM hydrogen peroxide, pH 7.4", "value": "demonstrated"},
      {"measurement": "Oxygen consumption as indicator of radical formation", "setting": "[4]; clozapine 100 μM, horseradish peroxidase 5 μg/ml, GSH 10 mM, pH 7.4", "value": "indicates an initial clozapine radical formation"},
      {"measurement": "Oxygen consumption", "setting": "[5]", "value": "observed"},
      {"measurement": "Covalent binding of clozapine-derived material to the enzyme (coelution of radioactivity with enzymatic protein)", "setting": "[6]; clozapine 100 μM, enzyme and hydrogen peroxide present", "value": "Covalent binding of clozapine-derived material to the enzyme was indicated"}
    ]},
    {"smiles": "CSc1ccc2c(c1)N=C(N1CCN(C)CC1)c1ccccc1N2", "note": "[8-methylthio-11-(4-methyl-1-piperazinyl)-5H-dibenzo[b,e][1,4]diazepine]", "values": [
      {"measurement": "Formation of reactive species", "setting": "[7]", "value": "form reactive species such as free radicals"}
    ]},
    {"smiles": "N[C@@H](CCC(=O)N[C@@H](CS)C(=O)NCC(=O)O)C(=O)O", "note": "[glutathione]", "values": [
      {"measurement": "Effect on ascorbyl radical concentration (ESR)", "setting": "horseradish peroxidase [1]", "value": "only marginally affected"},
      {"measurement": "Effect on covalent binding to the enzymatic protein and metabolite formation", "setting": "[6]; GSH 10 mM, pH 7.4, added to standard incubation", "value": "reduced but to a lesser extent"}
    ]},
    {"smiles": "CSc1ccc2c(c1)N=C(N1CCNCC1)c1ccccc1N2", "note": "[8-methylthio-11-(1-piperazinyl)-5H-dibenzo-[b,e][1,4]diazepine]", "values": [
      {"measurement": "Formation of reactive species", "setting": "[7]", "value": "form reactive species such as free radicals"}
    ]},
    {"smiles": "C[N+]1([O-])CCN(C2=Nc3cc(Cl)ccc3Nc3ccccc32)CC1", "note": "[8-chloro-11-(4-methyl-4-oxo-1-piperazinyl)-5H-dibenzo[b,e][1,4]diazepine]", "values": [
      {"measurement": "Formation of reactive species", "setting": "[7]", "value": "form reactive species such as free radicals"}
    ]},
    {"smiles": "Clc1ccc2c(c1)N=C(N1CCNCC1)c1ccccc1N2", "note": "[8-chloro-11-(1-piperazinyl)-5H-dibenzo[b,e][1,4]diazepine]", "values": [
      {"measurement": "Formation of reactive species", "setting": "[7]", "value": "form reactive species such as free radicals"}
    ]},
    {"smiles": "Oc1ccc2c(c1)N=C(N1CCNCC1)c1ccccc1N2", "note": "[8-hydroxy-11-(1-piperazinyl)-5H-dibenzo[b,e][1,4]diazepine]", "values": [
      {"measurement": "Formation of reactive species", "setting": "[7]", "value": "form reactive species such as free radicals"}
    ]},
    {"smiles": "CN1CCN(C2=Nc3cc(O)ccc3Nc3ccccc32)CC1", "note": "[8-hydroxy-11-(4-methyl-1-piperazinyl)-5H-dibenzo[b,e][1,4]diazepine]", "values": [
      {"measurement": "Formation of reactive species", "setting": "[8]; tests as for clozapine, worded \"can also be shown\"", "value": "form reactive species such as free radicals"}
    ]},
    {"smiles": "O=C1O[C@H]([C@@H](O)CO)C([O-])=C1O.[Na+]", "note": "[sodium ascorbate]", "values": [
      {"measurement": "Effect on metabolism of clozapine (UV signal changes)", "setting": "horseradish peroxidase [3]; sodium ascorbate 0.7 mM added to the incubation", "value": "reversed"},
      {"measurement": "Effect on clozapine binding to PMN's", "setting": "[9]; 5 mM sodium ascorbate, incubations containing opsonized zymosan", "value": "reduction of clozapine binding to PMN's"},
      {"measurement": "Effect on covalent binding of clozapine to PMN's", "setting": "[9]; radiolabeled clozapine and sodium ascorbate incubated together with PMN's, worded \"may also be shown\"", "value": "reduction of covalent binding"},
      {"measurement": "Effect on oxygen consumption i.e. initial clozapine radical formation", "setting": "[4]; sodium ascorbate 0.7 mM", "value": "prevented"},
      {"measurement": "Effect on clozapine metabolism (metabolite formation)", "setting": "[6]; sodium ascorbate 0.7 mM", "value": "completely reversed"},
      {"measurement": "Effect on covalent binding of clozapine to enzymatic protein", "setting": "[6]; sodium ascorbate 0.7 mM", "value": "no radioactivity coeluted with the enzymatic protein"}
    ]},
    {"smiles": "CN1CCN(C2=Nc3cc(Cl)c(O)cc3Nc3ccccc32)CC1", "note": "[7-hydroxy-8-chloro-11-(4-methyl-1-piperazinyl)-5H-dibenzo[b,e][1,4]diazepine]", "values": [
      {"measurement": "Formation of reactive species", "setting": "[7]", "value": "form reactive species such as free radicals"}
    ]},
    {"smiles": "O=C1O[C@H]([C@@H](O)CO)C(O)=C1O", "note": "[ascorbic acid, L-ascorbic acid]", "values": [
      {"measurement": "Effect on covalent binding of clozapine and its metabolites", "setting": "[8]; intact human cells, radical scavenger", "value": "prevented"}
    ]}
  ]
}
